ChEMBL document CHEMBL1139886, “Synthesis and characterization of constrained peptidomimetic dipeptidyl peptidase IV inhibitors: amino-lactam boroalanines” (J Med Chem, 2007)

Experiments:
Dipeptidyl peptidase 4 [1] = target: T1, Dipeptidyl peptidase 4 (Homo sapiens, UniProt P27487); assay: Inhibition of human placental DPP4
Dipeptidyl peptidase 4 [2] = target: T1, Dipeptidyl peptidase 4; assay: Inhibition of human placental DPP4 at pH 2
Dipeptidyl peptidase 4 [3] = target: T1, Dipeptidyl peptidase 4; assay: Inhibition of human placental DPP4 at pH 8

T1 sequence (P27487 whole entry): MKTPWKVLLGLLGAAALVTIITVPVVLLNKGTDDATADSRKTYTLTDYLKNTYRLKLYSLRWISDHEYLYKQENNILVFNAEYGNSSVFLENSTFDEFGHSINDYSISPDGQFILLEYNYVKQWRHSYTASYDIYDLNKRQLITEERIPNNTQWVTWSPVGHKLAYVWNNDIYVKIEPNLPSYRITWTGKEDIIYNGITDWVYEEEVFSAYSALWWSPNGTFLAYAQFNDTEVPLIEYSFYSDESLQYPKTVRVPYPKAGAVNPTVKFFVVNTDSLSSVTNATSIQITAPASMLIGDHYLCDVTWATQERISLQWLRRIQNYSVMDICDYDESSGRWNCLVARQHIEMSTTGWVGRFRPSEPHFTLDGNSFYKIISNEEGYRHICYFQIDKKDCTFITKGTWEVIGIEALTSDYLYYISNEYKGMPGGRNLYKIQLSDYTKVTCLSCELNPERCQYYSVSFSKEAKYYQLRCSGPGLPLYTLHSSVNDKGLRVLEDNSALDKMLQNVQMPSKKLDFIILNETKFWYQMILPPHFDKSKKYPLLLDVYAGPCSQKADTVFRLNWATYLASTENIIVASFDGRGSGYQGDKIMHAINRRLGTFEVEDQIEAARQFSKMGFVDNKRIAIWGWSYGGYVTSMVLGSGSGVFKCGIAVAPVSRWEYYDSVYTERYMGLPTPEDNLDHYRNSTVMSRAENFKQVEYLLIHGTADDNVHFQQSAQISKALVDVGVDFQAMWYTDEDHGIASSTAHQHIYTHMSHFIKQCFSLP

`C[C@@H](B(O)O)N1CC[C@@H](N)C1=O` was tested, and the Ki (Dipeptidyl peptidase 4 [1]) was 2.3 nM, the IC50 (Dipeptidyl peptidase 4 [2]) was 5.3 nM and the IC50 (Dipeptidyl peptidase 4 [3]) was 4.2 nM.
Compound `C[C@@H](B(O)O)N1CC[C@H](N)C1=O` has a Ki (Dipeptidyl peptidase 4 [1]) of 1100 nM, an IC50 (Dipeptidyl peptidase 4 [2]) of 480 nM and an IC50 (Dipeptidyl peptidase 4 [3]) of 460 nM.
